Our source for the IC50 and Ki values is patent US20210253562A1, “ACYLSUFONAMIDE COMPOUNDS USEFUL AS EP3 RECEPTOR ANTAGONISTS” (Janssen Pharmaceutica NV, priority 2018, published 2021).

For orientation: IC50 means the concentration at which inhibition is half-maximal. As a reminder, the Ki is a dissociation constant, usually derived from enzyme kinetics or from competition with a known ligand. Higher therefore signals a looser hold on the target.

The target in test [1] is T1, CHO cells over-expressing the EP3 receptor (Homo sapiens, UniProt P43115).
T1 construct: expressed in transfected cells; host or cells: CHO cells
T1 sequence (P43115 1-390): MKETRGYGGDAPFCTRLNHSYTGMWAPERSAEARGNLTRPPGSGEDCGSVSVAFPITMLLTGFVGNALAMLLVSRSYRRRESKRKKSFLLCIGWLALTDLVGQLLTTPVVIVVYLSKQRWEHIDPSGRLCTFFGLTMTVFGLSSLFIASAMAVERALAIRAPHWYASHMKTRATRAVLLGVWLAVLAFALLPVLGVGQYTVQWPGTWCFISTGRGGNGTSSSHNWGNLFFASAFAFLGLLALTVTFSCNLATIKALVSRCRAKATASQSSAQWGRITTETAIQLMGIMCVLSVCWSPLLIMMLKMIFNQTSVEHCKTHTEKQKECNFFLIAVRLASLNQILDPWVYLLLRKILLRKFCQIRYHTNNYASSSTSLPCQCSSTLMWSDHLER
Kind of test: CHO cell cAMP assay; EP3 cAMP antagonist dose response (sulprostone reference), HTRF. Format: cell-based. As to conditions: sulprostone 700 nM (EC80) and FSK 2 μM (EC70); read-out: CHO_cAMP IC50. As to the method:
Biological Example 2: CHO Cell cAMP Assay
This assay monitored the cAMP generation in CHO cells over-expressing the EP3 receptor in the presence or absence of antagonist stimulated with Forskolin (FSK, CAS No. 66428-89-5) and a known EP3 Agonist (sulprostone, CAS No. 60325-46-4). For detection, a homogeneous competitive immunoassay (Time Resolved Fluorescence Energy Transfer (hTR-FRET)) was used.
Cells (6K cells per well) were plated in Poly-D-Lysine coated plates the day before the assay was to be run and were incubated at 37° C. One hour before the assay the media was removed and replaced with assay buffer (500 mL HBSS (+Ca)+2.5 mL 1M HEPES+6.66 mL 7.5% BSA) (starved at 37° C.). At the start of the assay the buffer was removed from the cells and replaced with buffer containing test compound(s). Sulprostone at an EC80 dose (700 nM) and FSK at an EC70 dose (2 μM) were added to initiate the reaction (37° C. for 30 minutes).
FSK increases cAMP production and sulprostone decreases cAMP production produced by FSK. In this assay, EP3 antagonists will increase the cAMP to the level of cAMP generated by FSK alone.
The reaction was terminated with the addition of cAMP detection reagents (labeled cAMP and labeled cAMP antibody in lysis buffer (HTRF reagent, which utilizes a cryptate-labeled anti-cAMP and d2-labeled cAMP-d2 is an HTRF acceptor fluorophore)). Approximately one hour later the plates were read on an Envision (Perkin Elmer) in HTRF mode. Well results were calculated based on a ratio of counts at 665 nm and 615 nm (data output was a calculation of the ratio: (read @665 nm/read @ 615 nm)*1000. For test compounds dosed serially, well results were converted to nM cAMP using a cAMP standard run on each plate. nM cAMP from a set of wells dosed with test compound(s) were plotted. nM cAMP was calculated for each well from a standard curve located on each plate (P1-12 and P13-24) by first calculating the slope and deriving the intercept(b):
[formula] NScAMP_s tan dard_cruve=m(nM cAMP_s tan dard_curve)+b
NSP, NSN, NSsample were converted to nM cAMP using the following equation: […]
IC50 values were determined from a […] (Hill equation) of a single 11-point compound dosing. A best-fit curve was determined by the minimum sum of squares method plotting cAMP produced vs compound concentration.

Test [2] concerns the target T2, EP3 membrane (EP3 receptor) (Homo sapiens, UniProt P43115).
T2 construct: purchased Millipore HTS092M
T2 sequence (P43115 1-390): T1 sequence (P43115 1-390)
Kind of test: [3H]-PGE2 binding; EP3 competition binding (SPA). A digest of the protocol: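 Ki derived from one-site nonlinear regression of scintillation proximity counts after 2 h room-temperature equilibration. Serially diluted (1:3) compounds competed against [3H]-PGE2 (2 nM) for EP3 receptor membranes (2 μg/well) in pH 7.4 Tris buffer with 10 mM MgCl2, 1 mM EDTA, 0.1% DMSO.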

The structures appear in SMILES notation. Where two headings read alike, the source gives them in different places.

Take `COc1ccc(-n2ncc3c2/C(=C/CNC(=O)NS(=O)(=O)c2cc(Cl)c(Cl)s2)CCC3)cn1` [Compound #107, (E)-4,5-dichloro-N-((2-(1-(6-methoxypyridin-3-yl)-1,4,5,6-tetrahydro-7H-indazol-7-ylidene)ethyl)carbamoyl)thiophene-2-sulfonamide]: the IC50 in test [1] amounted to 27 nM. Also, the affinity in test [2], expressed as Ki, was 2 nM.
`COc1ccc(Cl)c(S(=O)(=O)NC(=O)NC/C=C2\COCc3cnn(Cc4ccc(Cl)cc4Cl)c32)c1` [Compound #65, (Z)-2-chloro-N-((2-(1-(2,4-dichlorobenzyl)-1,4-dihydropyrano[4,3-c]pyrazol-7(6H)-ylidene)ethyl)carbamoyl)-5-methoxybenzenesulfonamide]: in test [1], the IC50 is 44 nM. In test [2], this compound returned a Ki of 27 nM.
Take `O=C(NC/C(F)=C1/c2c(cnn2Cc2ccc(Cl)cc2Cl)CCC1F)NS(=O)(=O)c1cc(Cl)c(Cl)s1` (centres unmarked) [Compound #100, (E)-4,5-dichloro-N-((2-(1-(2,4-dichlorobenzyl)-6-fluoro-1,4,5,6-tetrahydro-7H-indazol-7-ylidene)-2-fluoroethyl)carbamoyl)thiophene-2-sulfonamide]: the IC50 in test [1] was 7 nM. Besides, the Ki in test [2] amounted to 3 nM.
On to `COc1ccc(Br)cc1S(=O)(=O)NC(=O)NC/C=C1\CCCc2cnn(Cc3ccc(Cl)cc3Cl)c21` [Compound #42, (E)-5-bromo-N-((2-(1-(2,4-dichlorobenzyl)-1,4,5,6-tetrahydro-7H-indazol-7-ylidene)ethyl)carbamoyl)-2-methoxybenzenesulfonamide], for which, in test [1], the IC50 turned out to be 6 nM. In test [2], this compound returned an inhibition constant (Ki) of 3 nM.
Regarding `O=C(C/C=C1\CCCc2cnn(Cc3ccc(Cl)cc3Cl)c21)NS(=O)(=O)c1cccs1` [Compound #20, (E)-3-(1-(2,4-dichlorobenzyl)-1,4,5,6-tetrahydro-7H-indazol-7-ylidene)-N-(thiophen-2-ylsulfonyl)propenamide], in test [1], the IC50 was 1000 nM. Moreover, in test [2], the affinity, expressed as Ki, was 280 nM.
On to `O=C(NC/C=C1\CCCc2cnn(-c3ccc(Br)cc3)c21)NS(=O)(=O)c1cc(Cl)c(Cl)s1` [Compound #75, (E)-N-((2-(1-(4-bromophenyl)-1,4,5,6-tetrahydro-7H-indazol-7-ylidene)ethyl)carbamoyl)-4,5-dichlorothiophene-2-sulfonamide], for which, in test [1], the 50% inhibitory concentration (IC50) is 4 nM. The Ki in test [2] is 1 nM.
On to `O=C(NC/C=C1\CCCc2cnn(Cc3ccc(Cl)cc3Cl)c21)NS(=O)(=O)c1cc(Cl)c(Cl)s1` [Compound #7, (E)-4,5-dichloro-N-((2-(1-(2,4-dichlorobenzyl)-1,4,5,6-tetrahydro-7H-indazol-7-ylidene)ethyl)carbamoyl)thiophene-2-sulfonamide], for which the IC50 in test [1] was found to be 11 nM. In addition, the affinity in test [2] (unit nM) corresponds to a Ki of 0.5 nM.
As for `O=C(CC/C(F)=C1\CCCc2cnn(Cc3ccc(Cl)cc3Cl)c21)NS(=O)(=O)c1cc(Cl)c(Cl)s1` [Compound #56, (Z)-4-(1-(2,4-dichlorobenzyl)-1,4,5,6-tetrahydro-7H-indazol-7-ylidene)-N-((4,5-dichlorothiophen-2-yl)sulfonyl)-4-fluorobutanamide], the IC50 in test [1] amounted to 4 nM. In test [2], the inhibition constant Ki turned out to be 1 nM.
`O=C(NC/C(F)=C1\CCCc2cnn(Cc3ccc(C(F)(F)F)cc3)c21)NS(=O)(=O)c1cc2ccccc2s1` [Compound #133, (Z)—N-((2-fluoro-2-(1-(4-(trifluoromethyl)benzyl)-1,4,5,6-tetrahydro-7H-indazol-7-ylidene)ethyl)carbamoyl)benzo[b]thiophene-2-sulfonamide]: the 50% inhibitory concentration (IC50) in test [1] worked out at 1260 nM. This compound also had a Ki in test [2] of 289 nM.
Turning to `O=C(NC/C(F)=C1\CCCc2cnn(Cc3ccc(Cl)cc3Cl)c21)NS(=O)(=O)c1ccc(F)c(F)c1` [Compound #156, (Z)—N-((2-(1-(2,4-dichlorobenzyl)-1,4,5,6-tetrahydro-7H-indazol-7-ylidene)-2-fluoroethyl)carbamoyl)-3,4-difluorobenzenesulfonamide], the IC50 in test [1] turned out to be 4 nM. Also, the Ki in test [2] is 2 nM.
As for `COc1ccc(Cl)cc1S(=O)(=O)NC(=O)NC/C(F)=C1\CCCc2cnn(Cc3ccc(Cl)cc3Cl)c21` [Compound #89, (Z)-5-chloro-N-((2-(1-(2,4-dichlorobenzyl)-1,4,5,6-tetrahydro-7H-indazol-7-ylidene)-2-fluoroethyl)carbamoyl)-2-methoxybenzenesulfonamide], the IC50 in test [1] stood at 160 nM. The same compound gave a Ki in test [2] of 26 nM.
On to `O=C(NC/C=C1\CCCn2nnc(-c3ccc(C(F)(F)F)cc3)c21)NS(=O)(=O)c1cc(Cl)c(Cl)s1` [Compound #155, (E)-4,5-dichloro-N-((2-(3-(4-(trifluoromethyl)phenyl)-6,7-dihydro-[1,2,3]triazolo[1,5-a]pyridin-4(5H)-ylidene)ethyl)carbamoyl)thiophene-2-sulfonamide], for which the IC50 in test [1] is 4 nM. Moreover, the affinity in test [2] corresponds to a Ki of 2 nM.
Turning to `O=C(C/C=C1\CCCc2cnn(Cc3ccc(Cl)cc3Cl)c21)NS(=O)(=O)c1cc(F)cc(F)c1` [Compound #19, (E)-3-(1-(2,4-dichlorobenzyl)-1,4,5,6-tetrahydro-7H-indazol-7-ylidene)-N-((3,5-difluorophenyl)sulfonyl)propenamide], in test [1], the half-inhibitory concentration (IC50) was found to be 83 nM. The inhibition constant (Ki) in test [2] came out at 14 nM.
For `O=C(NC/C(F)=C1\CCCc2cnn(Cc3ccc(C(F)(F)F)cc3)c21)NS(=O)(=O)c1cc(Cl)c(Cl)s1` [Compound #134, (Z)-4,5-dichloro-N-((2-fluoro-2-(1-(4-(trifluoromethyl)benzyl)-1,4,5,6-tetrahydro-7H-indazol-7-ylidene)ethyl)carbamoyl)thiophene-2-sulfonamide], in that order: 52 nM and 7 nM.
Take `O=C(CC/C=C1\CCCc2cnn(Cc3ccc(Cl)cc3Cl)c21)NS(=O)(=O)c1ccc(Cl)s1` [Compound #29, (E)-N-((5-chlorothiophen-2-yl)sulfonyl)-4-(1-(2,4-dichlorobenzyl)-1,4,5,6-tetrahydro-7H-indazol-7-ylidene)butanamide]: in test [1], the IC50 was found to be 2 nM. In test [2], this compound came in with a Ki of 1 nM.
For the compound `COc1ccc(Cl)cc1S(=O)(=O)NC(=O)NC/C(F)=C1\CCCc2cnn(Cc3ccc(C(F)(F)F)cc3)c21` [Compound #131, (Z)-5-chloro-N-((2-fluoro-2-(1-(4-(trifluoromethyl)benzyl)-1,4,5,6-tetrahydro-7H-indazol-7-ylidene)ethyl)carbamoyl)-2-methoxybenzenesulfonamide], in test [1], the half-maximal inhibitory concentration (IC50) is 349 nM. In test [2], this compound registered a Ki of 94 nM.
In the case of `O=C(NC/C(F)=C1\COCc2cnn(-c3cccc(C(F)(F)F)c3)c21)NS(=O)(=O)c1ccc(Cl)cc1` [Compound #104, (E)-4-chloro-N-((2-fluoro-2-(1-(3-(trifluoromethyl)phenyl)-1,4-dihydropyrano[4,3-c]pyrazol-7(6H)-ylidene)ethyl)carbamoyl)benzenesulfonamide], the half-inhibitory concentration (IC50) in test [1] is > 20000 nM. In test [2], the Ki was > 10000 nM.
In the case of `O=C(NC/C(F)=C1\CCCc2cnn(Cc3ccc(Cl)cc3Cl)c21)NS(=O)(=O)c1cc(Cl)c(Cl)s1` [Compound #40, (Z)-4,5-dichloro-N-((2-(1-(2,4-dichlorobenzyl)-1,4,5,6-tetrahydro-7H-indazol-7-ylidene)-2-fluoroethyl)carbamoyl)thiophene-2-sulfonamide], the IC50 in test [1] is 1 nM. In addition, the Ki in test [2] was 1 nM.
Turning to `O=C(NS(=O)(=O)c1cc(Cl)c(Cl)s1)OC/C=C1\COCc2cnn(Cc3ccc(Cl)cc3Cl)c21` [Compound #46, (Z)-2-(1-(2,4-dichlorobenzyl)-1,4-dihydropyrano[4,3-c]pyrazol-7(6H)-ylidene)ethyl ((4,5-dichlorothiophen-2-yl)sulfonyl)carbamate], in test [1], the IC50 was 8 nM. The compound also gave a Ki in test [2] of 2 nM.
